The values below come from patent US20050282811A1, “Diazabicyclic histamine-3 receptor antagonists” (Pfizer Inc, priority 2004, published 2005).

One may read the Ki as the dissociation constant of the complex between target and ligand, obtained from inhibition or displacement. The low end stands for higher affinity, the high end for lower affinity.

T1 sequence (Q9QYN8 whole entry): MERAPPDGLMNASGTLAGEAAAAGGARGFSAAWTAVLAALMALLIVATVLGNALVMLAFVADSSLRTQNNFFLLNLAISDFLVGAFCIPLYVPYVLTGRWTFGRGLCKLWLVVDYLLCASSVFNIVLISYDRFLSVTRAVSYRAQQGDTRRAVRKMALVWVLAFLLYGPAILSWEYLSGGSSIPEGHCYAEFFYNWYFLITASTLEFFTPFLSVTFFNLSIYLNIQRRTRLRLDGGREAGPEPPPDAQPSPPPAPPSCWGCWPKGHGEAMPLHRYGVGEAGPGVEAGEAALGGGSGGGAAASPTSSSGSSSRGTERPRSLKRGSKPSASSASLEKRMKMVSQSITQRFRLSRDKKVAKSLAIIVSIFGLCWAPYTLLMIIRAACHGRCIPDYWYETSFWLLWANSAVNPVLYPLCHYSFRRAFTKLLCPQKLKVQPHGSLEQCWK

The experiment addresses T1, rat histamine H3 receptors (Rattus norvegicus, UniProt Q9QYN8).
T1 construct: Frozen rat frontal brain or frozen human post-mortem frontal brain is homogenized; from tissue; host or cells: rat frontal brain membranes
The experiment is described as follows: Rat H3 Binding (3H-N-methylhistamine displacement, frontal brain membranes). Particulars: frozen rat frontal brain membranes; radioligand 1 nM 3H-N-methylhistamine; 1 hour incubation. The protocol: The in vitro affinity of the compounds in the present invention at the rat or human histamine H3 receptors can be determined according to the following procedure. Frozen rat frontal brain or frozen human post-mortem frontal brain is homogenized in 20 volumes of cold 50 mM Tris HCl containing 2 mM MgCl2 (pH to 7.4 at 4 degrees C.). The homogenate is then centrifuged at 45,000 G for 10 minutes. The supernatant is decanted and the membrane pellet re-suspended by Polytron in cold 50 mM Tris HCl containing 2 mM MgCl2 (pH to 7.4 at 4 degrees C.) and centrifuged again. The final pellet is re-suspended in 50 mM Tris HCl containing 2 mM MgCl2 (pH to 7.4 at 25 degrees C.) at a concentration of 12 mg/mL. Dilutions of compounds are made in 10% DMSO/50 mM Tris buffer (pH 7.4) (at 10×final concentration, so that the final DMSO concentration is 1%). Incubations are initiated by the addition of membranes (200 microliters) to 96 well V-bottom polypropylene plates containing 25 microliters of drug dilutions and 25 microliters of radioligand (1 nM final concentration ^3H-N-methylhistamine). After a 1 hour incubation, assay samples are rapidly filtered through Whatman GF/B filters and rinsed with ice-cold 50 mM Tris buffer (pH 7.4) using a Skatron cell harvester. Radioactivity is quantified using a BetaPlate scintillation counter.
With `COc1ccc(CN2CCN3C[C@H](COCCCN4CCCCC4)CC[C@H]3C2)cc1` (relative stereo) [Example 6], the inhibitory constant (Ki) came to 55 nM.

In turn, `c1ccc(CN2CCN3C[C@H](COCCCN4CCCCC4)CC[C@H]3C2)cc1` (stereo in doubt) [Example 2, trans-2-Benzyl-7-(3-piperidin-1-ylpropoxymethyl)-octahydro-pyrido[1,2-a]pyrazine] had a Ki of 125 nM. Against the preceding compound, the Ki is about 2.3-fold higher. Next, `c1ccc(CCN2CCN3C[C@H](COCCCN4CCCCC4)CC[C@H]3C2)cc1` (stereo in doubt) [Example 3, trans-2-Phenethyl-7-(3-piperidin-1-ylpropoxymethyl)-octahydro-pyrido[1,2-a]pyrazine]: 54 nM; `c1ccc(CCCN2CCN3C[C@H](COCCCN4CCCCC4)CC[C@H]3C2)cc1` (stereo in doubt) [Example 4, trans-2-(3-Phenylpropyl)-7-(3-piperidin-1-ylpropoxymethyl)-octahydro-pyrido[1,2-a]pyrazine]: 37 nM; `CC(=O)c1ccc(CN2CCN3C[C@H](COCCCN4CCCCC4)CC[C@H]3C2)cc1` (stereo in doubt) [Example 5, trans-1-{4-[7-(3-Piperidin-1-ylpropoxymethyl)-octahydro-pyrido[1,2-a]pyrazin-2-ylmethyl]-phenyl}-ethanone]: 35 nM. The result for `COc1cccc(CN2CCN3C[C@H](COCCCN4CCCCC4)CC[C@H]3C2)c1` (stereo in doubt) [Example 7, trans-2-(3-Methoxybenzyl)-7-(3-piperidin-1-ylpropoxymethyl)-octahydro-pyrido[1,2-a]pyrazine] reads 28 nM; that for `Fc1ccc(CN2CCN3C[C@H](COCCCN4CCCCC4)CC[C@H]3C2)cc1` (stereo in doubt) [Example 8, trans-2-(4-Fluorobenzyl)-7-(3-piperidin-1-ylpropoxymethyl)-octahydro-pyrido[1,2-a]pyrazine], 26 nM. Compound `Fc1cccc(CN2CCN3C[C@H](COCCCN4CCCCC4)CC[C@H]3C2)c1` (stereo in doubt) [Example 9, trans-2-(3-Fluorobenzyl)-7-(3-piperidin-1-ylpropoxymethyl)-octahydro-pyrido[1,2-a]pyrazine] returned a Ki of 9 nM. Against the preceding compound, the Ki is about 2.9-fold lower. Next, `Clc1ccc(CN2CCN3C[C@H](COCCCN4CCCCC4)CC[C@H]3C2)cc1` (stereo in doubt) [Example 10, trans-2-(4-Chlorobenzyl)-7-(3-piperidin-1-ylpropoxymethyl)-octahydro-pyrido[1,2-a]pyrazine]: 14 nM. `Clc1cccc(CN2CCN3C[C@H](COCCCN4CCCCC4)CC[C@H]3C2)c1` (stereo in doubt) [Example 11, trans-2-(3-Chlorobenzyl)-7-(3-piperidin-1-ylpropoxymethyl)-octahydro-pyrido[1,2-a]pyrazine] had a Ki of 33 nM.

Compound `CC(=O)Nc1ccc(CN2CCN3C[C@H](COCCCN4CCCCC4)CC[C@H]3C2)cc1` (stereo in doubt) [Example 12, trans-N-{4-[7-(3-Piperidin-1-ylpropoxymethyl)-octahydro-pyrido[1,2-a]pyrazin-2-ylmethyl]-phenyl}-acetamide] displayed a Ki of 70 nM. Next, `c1cc(CN2CCN3C[C@H](COCCCN4CCCCC4)CC[C@H]3C2)ccn1` (stereo in doubt) [Example 13, trans-7-(3-Piperidin-1-yl-propoxymethyl)-2-pyridin-4-ylmethyl-octahydro-pyrido[1,2-a]pyrazine]: 33 nM; `c1ccc(CN2CCN3C[C@H](COCCCN4CCCCC4)CC[C@H]3C2)nc1` (stereo in doubt) [Example 15, trans-7-(3-Piperidin-1-yl-propoxymethyl)-2-pyridin-2-ylmethyl-octahydro-pyrido[1,2-a]pyrazine]: 90 nM. Next, `CN1CCN2C[C@H](COCCCN3CCCCC3)CC[C@H]2C1` (stereo in doubt) [Example 16, trans-2-Methyl-7-(3-piperidin-1-ylpropoxymethyl)-octahydro-pyrido[1,2-a]pyrazine]: 114 nM; `CC(=O)c1ccc(CN2CCN3C[C@@H](COCCCN4CCCCC4)CC[C@H]3C2)cc1` (stereo in doubt) [Example 17, cis-1-{4-[7-(3-Piperidin-1-ylpropoxymethyl)-octahydro-pyrido[1,2-a]pyrazin-2-ylmethyl]-phenyl}-ethanone]: 60 nM; `Clc1ccc(CN2CCN3C[C@@H](COCCCN4CCCCC4)CC[C@H]3C2)cc1` (stereo in doubt) [Example 18, cis-2-(4-Chlorobenzyl)-7-(3-piperidin-1-ylpropoxymethyl)-octahydro-pyrido[1,2-a]pyrazine]: more than 69 nM. The result for `CS(=O)(=O)c1ccc(CN2CCN3C[C@@H](COCCCN4CCCCC4)CC[C@H]3C2)cc1` (stereo in doubt) [Example 21, cis-2-(4-Methanesulfonylbenzyl)-7-(3-piperidin-1-ylpropoxymethyl)-octahydro-pyrido[1,2-a]pyrazine] reads 26 nM; that for `C1CCN(CCCOC[C@@H]2CC[C@H]3CNCCN3C2)CC1` (stereo in doubt) [Intermediate 3, trans-7-(3-Piperidin-1-ylpropoxymethyl)-octahydro-pyrido[1,2-a]pyrazine], 155 nM. For the compound `CS(=O)(=O)c1ccc(CN2CCN3C[C@H](COCCCN4CCCCC4)CC[C@H]3C2)cc1` [Example 1, trans-(7R, 9aS)-2-(4-Methanesulfonylbenzyl)-7-(3-piperidin-1-ylpropoxymethyl)-octa-hydro-pyrido[1,2-a]pyrazine], the inhibition constant (Ki) came out at 42 nM. Against the preceding compound, the Ki is about 3.7-fold lower.
